Test [1] addresses mutant C150 HBV capsid protein (C150Bo) (Hepatitis B virus genotype D subtype adw, UniProt P03147, C107A/C48A/C61A/R150C). The experiment in a line: HBV assembly assay (fluorescence quenching in vitro capsid assembly). The format is biochemical. The settings on record: at about 10 μM; 50 mM Hepes pH 7.5, 150 mM NaCl, 1 hour at room temperature.
The test system of test [2] is HBV replication in HepG2-2.2.15 cells. Nature of the test: Inhibition of HBV replication dot-blot assay. The format is cell-based. The settings on record: at 10 μM, six days, reduction in HBV DNA levels. Here is the method:
Compounds active in the HBV assembly assay are tested for their activity and toxicity in cellular assay. In the first anti-viral assay, the ability of compounds to inhibit HBV replication in an HBV-producing hepatoma cell line using the dot-blot method is evaluated.
Briefly, confluent monolayers of HepG2-2.2.15 cells are incubated with complete medium containing various concentrations of a test compound. Three days later, the culture medium is replaced with fresh medium containing the appropriately diluted test compound. Six days following the initial administration of the test compound, the cell culture supernatant is collected, and cell lysis is performed. The samples are applied onto Nylos membranes and DNA is immobilized to the membrane by UV cross-linking. After pre-hybridization, the HBV probe is added and the hybridization is performed overnight. The membranes are exposed to the Kodak films; antiviral activity is calculated from the reduction in HBV DNA levels (EC50). The EC50 for antiviral activity is calculated from the dose response curves of active compounds. Assay performance over time is monitored by the use of the standard positive control compounds ETV, BAY 41-4109, and HAP-1.
Selected compounds were tested for their activity and toxicity in cellular assay. In the first anti-viral assay, the ability of compounds to inhibit HBV replication in an HBV-producing hepatoma cell line using the dot-blot method was evaluated.
Confluent monolayers of HepG2-2.2.15 cells were incubated with complete medium containing various concentrations of a test compound. Three days later, the culture medium was replaced with fresh medium containing the appropriately diluted test compound. Six days following the initial administration of the test compound, the cell culture supernatant was collected, and cell lysis was performed. The samples were applied onto Nylos membranes and DNA was immobilized to the membrane by UV cross-linking. After pre-hybridization, the HBV probe was added and the hybridization was performed overnight. The membranes were exposed to the Kodak films; antiviral activity was calculated from the reduction in HBV DNA levels (EC50). The EC50 for antiviral activity was calculated from the dose response curves of active compounds. Assay performance over time was monitored by the use of the standard positive control compounds ETV, BAY 41-4109, and HAP-1.

The values that follow come from patent US10537580B2, “Azocane and azonane derivatives and methods of treating hepatitis B infections” (Novira Therapeutics, Inc., priority 2015, dated 2020).

Structures are written as SMILES.

mutant C150 HBV capsid protein (C150Bo), sequence (P03147 whole entry C107A/C48A/C61A/R150C, looked up): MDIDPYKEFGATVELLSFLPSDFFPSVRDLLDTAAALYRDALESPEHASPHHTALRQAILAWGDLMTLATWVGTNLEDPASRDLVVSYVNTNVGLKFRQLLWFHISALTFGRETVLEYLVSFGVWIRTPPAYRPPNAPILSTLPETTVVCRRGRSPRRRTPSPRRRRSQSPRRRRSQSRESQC

For the compound `O=C(Nc1ccc(F)c(Cl)c1)c1ccc(F)c(S(=O)(=O)N2CCOCCC(O)C2)c1` (stereo not shown) [Compound 2039], the “Activity (HBV assembly assay)” value in test [1] is listed as “+ (‘+’ indicates >50% activity at about 10 μM)”. Moreover, the Activity in dot-blot-assay entry in test [2] is “+ (‘+’ indicates >50% activity at 10 μM)”.

In the case of `O=C(Nc1ccc(F)c(Cl)c1)c1ccc(F)c(S(=O)(=O)N2CCOCC(O)CC2)c1` (stereo not shown) [Compound 2040_E1], the “Activity (HBV assembly assay)” value in test [1] was “+ (‘+’ indicates >50% activity at about 10 μM)”. Besides, the Activity in dot-blot-assay entry in test [2] is listed as “+ (‘+’ indicates >50% activity at 10 μM)”.

As for `O=C(Nc1ccc(F)c(Cl)c1)c1ccc(F)c(S(=O)(=O)N2CCOCC(O)CC2)c1` (stereo not shown) [Compound 2040_E2], the “Activity (HBV assembly assay)” value in test [1] was “+ (‘+’ indicates >50% activity at about 10 μM)”. In test [2], the Activity in dot-blot-assay entry was “+ (‘+’ indicates >50% activity at 10 μM)”.

Consider `O=C(Nc1ccc(F)c(Cl)c1)c1ccc(F)c(S(=O)(=O)N2CCCCC(O)C(F)C2)c1` (stereo not shown) [Compound 2285_D1], for which the “Activity (HBV assembly assay)” value in test [1] is “+ (‘+’ indicates >50% activity at about 10 μM)”. In addition, the Activity in dot-blot-assay result in test [2] is given as “+ (‘+’ indicates >50% activity at 10 μM)”.

`O=C(Nc1ccc(F)c(Cl)c1)c1ccc(F)c(S(=O)(=O)N2CCCCC(O)C(F)C2)c1` (stereo not shown) [Compound 2285_D2]: in test [1], the “Activity (HBV assembly assay)” value was “+ (‘+’ indicates >50% activity at about 10 μM)”. Besides, the Activity in dot-blot-assay result in test [2] is reported as “+ (‘+’ indicates >50% activity at 10 μM)”.

As for `O=C(Nc1cc(F)c(F)c(F)c1)c1ccc(F)c(S(=O)(=O)N2CCCCCCCC2)c1` [Compound 2435], the “Activity (HBV assembly assay)” value in test [1] was “+ (‘+’ indicates >50% activity at about 10 μM)”. Further, the Activity in dot-blot-assay entry in test [2] is given as “+ (‘+’ indicates >50% activity at 10 μM)”.

For `O=C(Nc1ccc(F)c(Cl)c1)c1ccc(F)c(S(=O)(=O)N2CCCCCCCC2)c1` [Compound 2436], in test [1], the “Activity (HBV assembly assay)” value is reported as “+ (‘+’ indicates >50% activity at about 10 μM)”. Besides, the Activity in dot-blot-assay result in test [2] was “+ (‘+’ indicates >50% activity at 10 μM)”.

`O=C(Nc1cc(F)c(F)c(F)c1)c1ccc(F)c(S(=O)(=O)N2CCOCC(O)CC2)c1` (stereo not shown) [Compound 2520]: in test [1], the “Activity (HBV assembly assay)” value was “+ (‘+’ indicates >50% activity at about 10 μM)”. Also, in test [2], the Activity in dot-blot-assay result is “+ (‘+’ indicates >50% activity at 10 μM)”.
